According to patent US20250248955A1, “PHENYL ACRYLIC ACID COMPOUND, AND PREPARATION METHOD AND APPLICATION THEREOF” (LONGIVITRON (SUZHOU) BIOTECHNOLOGY CO., LTD, priority 2022, published 2025):

What follows are compounds tested against ACAT1 (Homo sapiens (Human), UniProt P24752) (assay: ACAT1 small molecule inhibitor screening (enzyme activity, IC50)). Settings: summary of Table 1; unit given as mol/L.
Type: biochemical
Method: ACAT1 can catalyze two molecules of acetyl coenzyme A to reversibly form acetoacetyl coenzyme A. Its activity was measured through the reaction between ACAT1-catalyzed substrate acetoacetyl-coenzyme A and coenzyme A, from which the product acetyl-coenzyme A is produced. Since acetoacetyl-coenzyme A is specifically absorbed in a specific spectrum, the impact on the enzyme activity of ACAT1 can be reflected through the detection of an increase or decrease of absorption in a specific spectrum.
ACAT1 recombinant proteins were expressed and purified by Escherichia coli, and the concentration of ACAT1 recombinant proteins obtained was 1 mg/mL. The buffers adopted for ACAT1 small molecule inhibitor screening were 50 mM Tris-HCl (pH 8.1), 20 mM MgCl2, and 40 mM KCl. In 200 μL of enzyme catalytic system, 1 μL of ACAT1 recombinant proteins, the substrate acetyl-coenzyme A whose final concentration was changed from 25 μM to 100 μM through a CPM probe, and small molecule inhibitors at different concentrations were added, respectively. The measurement was carried out through a microplate reader (Biotek Synergy H1) and using excitation light at 355 nm and emission light at 460 nm, and the IC50 of the inhibitors was calculated through software Prism 7.0.

Sequence of ACAT1 (P24752 34-427): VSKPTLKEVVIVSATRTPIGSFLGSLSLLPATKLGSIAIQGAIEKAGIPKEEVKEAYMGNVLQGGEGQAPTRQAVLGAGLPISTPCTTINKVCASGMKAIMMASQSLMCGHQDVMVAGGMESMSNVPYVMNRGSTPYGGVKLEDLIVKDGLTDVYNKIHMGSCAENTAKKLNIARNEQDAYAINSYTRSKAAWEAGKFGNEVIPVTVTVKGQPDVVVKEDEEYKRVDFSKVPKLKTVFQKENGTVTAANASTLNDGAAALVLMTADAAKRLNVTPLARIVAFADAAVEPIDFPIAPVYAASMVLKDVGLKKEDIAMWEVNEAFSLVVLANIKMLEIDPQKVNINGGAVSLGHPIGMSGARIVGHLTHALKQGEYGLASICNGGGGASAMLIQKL

IC50, < 100 µM:
COc1ccc(CCOc2ccc(NC(=O)/C=C/c3ccc(O)c(O)c3)cc2)cc1 [Compound M5]
Cc1ccc(CCOc2ccc(NC(=O)/C=C/c3ccc(O)c(O)c3)cc2)cc1 [Compound M7]
COc1ccc(CCOc2ccc(NC(=O)/C=C/c3ccc(O)c(O)c3)cc2)cc1OC [Compound M9]
COc1cc(CCOc2ccc(NC(=O)/C=C/c3ccc(O)c(O)c3)cc2)cc(OC)c1OC [Compound M10]
COCOc1ccc(/C=C/C(=O)Nc2ccc(OCCc3ccc(OC)cc3)cc2)cc1OCOC [Compound M12]
COCOc1ccc(/C=C/C(=O)Nc2ccc(OCCc3cc(OC)c(OC)c(OC)c3)cc2)cc1OCOC [Compound M17]
